We go through 1 compound from publication PMC6530361, “Anti-tumor Efficacy Assessment of the Sigma Receptor Pan Modulator RC-106. A Promising Therapeutic Tool for Pancreatic Cancer” (Frontiers in Pharmacology, 2019).

Assay [1] deals with S1R. Also noted: method as in Rui et al., 2016; Rossi et al., 2017. As to conditions: ref Rui et al., 2016; Rossi et al., 2017; cited from earlier work.
For assay [2], the system named is proteasome activity of PANC-1, Capan-1, and Capan-2. Nature of the assay: Proteasome activity assay, all cell lines. To be noted: 20–100 μM, 24 h, all PC cell lines. The class given is cell-based. The procedure:
(§1) Cells were seeded in 6-well plates at density of 250 × 10^3 cells/well. Cells were treated with increasing concentration of RC-106 and after 24 h total protein extracts were obtained: cells were washed 2 times with PBS and lysed with 100 μL of lysis buffer (Hepes 5 mM pH 7.5, NaCl 150 mM, Glycerol 10%, Triton X100 1%, MgCl2 1.5 mM, EGTA 5 mM). Protein concentration of samples was quantified using Bradford method. Proteasome activity was quantified as described below. Proteasome solution was composed by 40 μg of proteins, 10 μL of 10X proteasome buffer (Hepes pH 7.5 250 mM, EDTA pH 8.0 5 mM, NP-40 0.5%, SDS 0.01%) and 10 μL of 10 mM proteasome substrate (N-Succinyl-Leu-Leu-Val-Tyr-7-Amido-4-Methylcoumarin, 7.6 mg/mL; Sigma-Aldrich, United States). 100 μL of proteasome solution was loaded in wells of a black 96-well plate. The plate was then incubated at 37°C for 2 h and the fluorescence was measured in a microplate reader (excitation 380 nm, emission 460 nm; BMG-Labtech, Germany).

Assay [3] deals with Capan-1. Put plainly: MTS assay (cell viability, 2D). Format: cell-based. As to conditions: Homo sapiens. The procedure:
(§2) Pancreatic adenocarcinoma Panc-1, Capan-1, and Capan-2, cell lines were purchased by the ATCC. All cell lines were grown in culture medium composed of DMEM/Ham’s F12 (1:1; Euroclone) supplemented with fetal calf serum (10%; Euroclone), glutamine (2 mM; Euroclone), and insulin (10 μg/mL; Sigma-Aldrich, St. Louis, MO, United States). All experiments were performed on cells in the exponential growth phase and checked periodically for mycoplasma contamination by MycoAlert^TM Mycoplasma Detection Kit (Lonza, Basel, Switzerland).
(§3) Cytotoxicity was assayed using CellTiter 96® AQueous One Solution Cell Proliferation Assay (Promega, Milan, Italy). Cells were seeded onto a 96-well plate at a density of 3 × 10^3 cells per well. Cell lines were exposed to increasing concentrations of the drug, ranging from 0.1 to 100 μM. The effect of the drug was evaluated after 24, 48, and 72 h of continued exposure. Two independent experiments were performed in octuplicate. The OD of treated and untreated cells was determined at a wavelength of 490 nm using a […].
(§4) Dose response curves were created by Excel software. IC50 values were determined graphically from the plot.
(Tetrazolium assays rely on reduction of a dye to a coloured formazan, in cell work by metabolically active cells.)

Assay [4] deals with Panc-1. Nature of the assay: MTS assay (cell viability, 2D). The class given is cell-based. As to conditions: Homo sapiens. The protocol:
as §2, §3, §4

Assay [5] concerns Capan-2. Put plainly: MTS assay (cell viability, 2D). The class given is cell-based. As to conditions: Homo sapiens. The protocol:
as §2, §3, §4

Assay [6] concerns proteasome activity of Capan-2. Put plainly: Proteasome activity assay. To be noted: Capan-2, 24 h. The class given is cell-based. The procedure: as §1
The subject of assay [7] is proteasome activity of Capan-1. Put plainly: Proteasome activity assay. To be noted: Capan-1, 24 h, highest concentration used. The class given is cell-based. The protocol:
as §1

Assay [8] relates to S2R. Also noted: method as in Rui et al., 2016; Rossi et al., 2017. As to conditions: ref Rui et al., 2016; Rossi et al., 2017; cited from earlier work.

Like-named read-outs stand apart in the source and are kept apart here.

Consider `C/C(=C\CN1CCC(Cc2ccccc2)CC1)c1ccc2ccccc2c1` [RC-106, (E)-4-benzyl-1-(3-(naphthalen-2-yl)but-2-en-1-yl)piperidine], for which the S1R modulatory profile entry in assay [1] is listed as “S1R antagonist”. The proteasome activity entry in assay [2] was “reduce proteasome activity in a dose dependent manner”. In addition, the IC50 in assay [3] (CAPAN-1, 24 h exposure, read-out: IC50 values 24h) came to 56.8 ± 0.98 µM; in assay [3] (CAPAN-1, 48 h exposure, read-out: IC50 values 48h), 50.3 ± 3.04 µM; in assay [3] (CAPAN-1, 72 h exposure, read-out: IC50 values 72h), 32.8 ± 3.43 µM; in assay [4] (PANC-1, 24 h exposure, read-out: IC50 values 24h), 55.3 ± 0.7 µM; in assay [4] (PANC-1, 48 h exposure, read-out: IC50 values 48h), 51.7 ± 1.38 µM; in assay [4] (PANC-1, 72 h exposure, read-out: IC50 values 72h), 52.1 ± 0.47 µM. Also, the 50% inhibitory concentration (IC50) in assay [5] (CAPAN-2, 24 h exposure, read-out: IC50 values 24h) was determined as 52.6 ± 0.07 µM; in assay [5] (CAPAN-2, 48 h exposure, read-out: IC50 values 48h) it was 54.2 ± 2.18 µM; in assay [5] (CAPAN-2, 72 h exposure, read-out: IC50 values 72h), 53.3 ± 1.62 µM. In assay [6], the “lowest concentration used to inhibit proteasome activity” value is 20 µM. The “concentration at which greatest proteasome inhibition is observed” value in assay [7] stood at 100 µM. Also, in assay [8], the S2R modulatory profile result is on record as “S2R agonist”.

As usually defined, the IC50 is the concentration needed to halve the response being measured.
